Experimental data published in patent publication US20250248392A1, “LETHAL BAIT FOR PEST ANT CONTROL” (priority 2024, published 2025).

How the values were obtained:
Assay type in all cases: in vivo
Myrmica rubra fire ants [1] = assay: Exp. 17: choice between lethal and non-lethal liquid bait, survival of laboratory colonies; details: boric acid as lethal agent in baits; conclusion from Exps. 17-19 (M. rubra, F. oreas, C. modoc)
[2] = system: Camponotus modoc field colonies; assay: Exp. 13: seasonal consumption of liquid food baits by field colonies; details: Exp. 13, Jun. 18 to Sep. 7, 2021
Description: (§1) Tubes were spaced around the entrance of C. modoc and M. rubra nests, with tube positions randomly assigned in each replicate.
(§2) For the C. modoc experiment (Exp. 13), Eppendorf tubes were affixed 5 cm apart to trees or logs housing a colony as shown, for example, in FIG. 6b. For the M. rubra experiment (Exp. 14), tubes were placed 5 cm apart around the entrance of subterranean nests. Evaporation control tubes were placed in Tupperware containers (15 cm×9 cm×10 cm) with a mesh-covered hole in the lid, and containers were set near ant nests. Replicates with M. rubra colonies (n=10; repeated on 7 dates) were run for 4 hours, and replicates with C. modoc colonies (n=13; repeated on 6 dates) were run for 24 hours. After replicates were terminated, tubes were capped, transported to the laboratory in a cooler, and weighed. All field studies were run on warm and sunny days with observable ant activity.
(§3) Colonies of C. modoc were located along the Mamquam forest service road (near Squamish, BC, Canada) and colonies of M. rubra were located at Inter River Park (District of North Vancouver, BC, Canada). […] Throughout the summer season, nutrient consumption by colonies was measured in circa 3-week intervals on six dates for C. modoc colonies from Jun. 18, 2021 to Sep. 7, 2021, and on seven dates for M. rubra colonies from May 21, 2021 to Sep. 13, 2021.

[3] = system: Myrmica rubra field colonies; assay: Exp. 14: seasonal consumption of liquid food baits by field colonies
Description: as §1, §2, §3

Myrmica rubra fire ants [4] = assay: Laboratory consumption of liquid nutrient baits (Exps. 2, 4, 6, 8, 10, 12)
Protocol: (§4) Liquid nutrient solutions for experiments (see Table 1 for nutrient concentrations) were prepared by weighing dry ingredients (TR 204 scale; Denver Instrument Company, CO, USA), and then mixing them in distilled water. Aliquots (1 mL) of these solutions were pipetted into 1.5-mL Eppendorf tubes (Thermo Fisher Scientific, Waltham, MA 02451, U.S.A.) which were stored in a freezer (−4° C.) until needed.
(§5) Prior to experiments, Eppendorf tubes were removed from the freezer to thaw, and then vortexed to dissolve all solutes. Then, a 1-cm long piece of cotton dental wick (Richmond Dental & Medical, Charlotte, NC 28205, USA) was inserted into each tube, thus allowing ants to ingest the liquid without spillage. Also prior to bioassays, colonies were deprived of sugar water and food for 24 hours and 4 hours, respectively (the maximum time ants could endure without these foods before they attempted to chew their way out of containers). […]
(§6) Colonies of C. modoc (Exp. 1) and M. rubra (Exp. 2) were offered three choices: (1) 11 EAAs+10 non-EAAs (1.05% total w/v) in water; (2) 10 non-EAAs (0.5% w/v) in water; and (3) a water control. […] Data were analyzed using generalized linear models (GLM) and generalized linear mixed models (GLMM). For all models, the significance (p 0.05) of each predictor was assessed using a likelihood ratio test (LRT), and Tukey adjusted pairwise comparisons between means. […]

[5] = system: Lasius niger black garden ants; assay: Exp. 15: consumption of liquid food baits by field colonies; details: Exp. 15: EAAs 5.55%, sucrose 5.55%, EAAs 1.0% + sucrose 4.55% w/v, water
Description: In Experiments 15 and 16, the bait of EAAs and sucrose was effective for diverse ant taxa including black garden ants and thatching ants, as shown in FIG. 7. In Experiment 15 (n=10), colonies of Lasius niger black garden ants were located at the base of trees on the Burnaby campus of Simon Fraser University, and tubes were affixed next to each other on tree trunks alongside the ants' foraging trails. In Experiment 16 (n=10), colonies of Formica aserva thatching ants were located along the Mamquam forest service road (see above), and tubes were placed on top of tree stumps that contained an ant colony. For both experiments, evaporation control tubes were placed in Tupperware containers (15 cm×9 cm×10 cm) with a mesh-covered hole in the lid, and containers were set near ant colonies. Each colony was offered four Eppendorf tubes that contained: (1) EAAs (5.55% w/v); (2) sucrose (5.55% w/v), (3) EAAs (1.0% w/v)+sucrose (4.55% w/v); and (4) plain water (control).

[6] = system: Camponotus modoc carpenter ants; assay: Laboratory consumption of liquid nutrient baits (Exps. 1, 3, 5, 7, 9, 11); details: Exps. 5 and 7: single nutrients and ternary blend, unadjusted and adjusted concentrations
Protocol: as §4, §5, §6

OB(O)O [boric acid]
aversion to bait consumption (Myrmica rubra fire ants [1]): not aversive to bait consumption

OC[C@H]1O[C@@](CO)(O[C@H]2O[C@H](CO)[C@@H](O)[C@H](O)[C@H]2O)[C@@H](O)[C@@H]1O [sucrose, D-sucrose]
change of consumption over the season [2]: decreased over time | change of consumption over the season ([3]; Exp. 14, May 21 to Sep. 13, 2021): declined over time | consumption by field colonies ([3]; Exp. 14: EAA 5.55%, sucrose 5.55%, EAA 1.0% + sucrose 4.55% w/v, water, seven dates, 4 hours): generally consumed more sucrose | consumption by colonies (Myrmica rubra fire ants [4]; Exp. 6: unadjusted concentrations (urea 2.5%, EAAs 0.55%, sucrose 2.5% w/v)): preferentially consumed | consumption by colonies (Myrmica rubra fire ants [4]; Exp. 8: adjusted concentrations (5.55% w/v)): preferentially consumed | consumption by field colonies [5]: equally consumed

NC(N)=O [urea]
consumption by colonies [6]: preferentially consumed
